Experimental data taken from patent publication US20240016938A1, “METHODS FOR INCREASING THE BIOAVAILABILITY OF NUCLEOSIDE MEDICINAL AGENTS” (ZOGENIX MDS, INC., priority 2022, published 2024).
Where two headings read alike, the source gives them in different places.

Assay: Phase 1 open-label, fixed-sequence, single-ascending dose and food-effect PK study of MT1621 in adult healthy subjects
Type: in vivo, human
Conditions: for half-life: read-out: t½ (converted)
Experimental: A phase 1 study was conducted as an open-label, fixed-sequence, single-ascending dose study in adult healthy subjects designed to evaluate the safety, tolerability, PK, and food-effect of MT1621 (dC and dT). To evaluate the PK of MT1621, the combination was administered at three different doses. Treatment A was a 43.3 mg/kg dose of MT1621 (i.e., a 43.3 mg/kg dose of dC and a 43.3 mg/kg dose of dT (each approximately equivalent to 1 dose of a 130 mg/kg daily dose, divided 3 times daily [TID])) in healthy male and female subjects under fasting conditions; Treatment B was an 86.7 mg/kg dose of MT1621 (i.e., a 86.7 mg/kg dose of dC and a 86.7 mg/kg dose of dT (each approximately equivalent to 1 dose of a 260 mg/kg daily dose, divided TID)) in healthy male and female subjects under fasting conditions; and Treatment C was a 133.3 mg/kg dose of MT1621 (i.e., a 133.3 mg/kg dose of dC and a 133.3 mg/kg dose of dT (each approximately equivalent to a 400 mg/kg daily dose, divided TID)) in healthy male and female subjects under fasting conditions. Additionally, Treatment D was a 133.3 mg/kg dose of MT1621 (i.e., a 133.3 mg/kg dose of dC and a 133.3 mg/kg dose of dT (each approximately equivalent to a 400 mg/kg daily dose, divided TID) in healthy male and female subjects under fed conditions, to determine the effect of a high-fat meal on the single-dose PK of MT1621.
Methodology of open-label, Phase 1, fixed-sequence, single-dose, dose escalation, and food-effect study. Fourteen (14) healthy, adult, male and female subjects were enrolled with an approximately equal distribution (at least 40% of each sex) between male and female subjects.
On Day 1 of each period, subjects received 1 of 3 dose levels of MT1621 under fasting conditions as escalating single doses over 3 periods in Part A (Treatments A, B, and C in Periods 1, 2, and 3, respectively) and with the highest dose under fed conditions in Part B (Treatment D in Period 4). Four (4) of 14 subjects that completed Part A (Periods 1 to 3) could not complete Part B (Treatment D in Period 4) during the original confinement. These subjects were then to return to the clinical unit and continue the study to complete Part B (Treatment D in Period 4); 2 of the 4 subjects completed Part B.
Each treatment was assessed by blood and urine PK sampling pre-dose and up to 48 hours post-dose for the determination of dC and dT in plasma and urine PK, and possible future analysis of blood for PD biomarkers.
A washout period of at least 2 days without drug between each treatment administration was maintained. Fourteen subjects were enrolled in the study, and 12 subjects completed the study. Data from 14 subjects were included in the PK analysis of Periods 1, 2, and 3 and data from 12 subjects were included in the PK analysis of Period 4.
Study drug administered in Example 1 was 0.5 g dC and 0.5 g dT powders for solution and were reconstituted in juice or water.
After reconstitution in a fixed amount of water or juice, the solution was administered via measured volume to provide the amounts specified in Studies A, B, C, and D.
MT1621 was administered orally at Hour 0 on Day 1, following an overnight fast for Treatments A, B, and C and within 5 minutes of consumption of a standardized high-fat breakfast (which included eggs, bacon, and toast with butter) for Treatment D.
Blood samples for the determination of plasma dC and dT concentrations were collected on Day 1 of each period at pre-dose (0 hour), and at 0.25, 0.5, 1, 1.5, 2, 3, 4, 5, 6, 8, 12, 24, and 48 after study drug administration. In Period 4, blood was collected for the 48-hour PK sample; for Periods 1 through 3, the 48-hour PK sample was collected at the same time as the pre-dose PK sample from the next period so only 1 sample was collected for both PK time points. It should be pointed out that Periods 1-3 used sampling up to 24 hours for PK while Period 4 used the complete 48-hour profile. […]

[1] = 100*(test/reference): 133.3 mg/kg MT1621 fed vs fasted, baseline-adjusted plasma
[2] = Treatment A: single 43.3 mg/kg MT1621, fasted, baseline-adjusted plasma, arithmetic mean ± SD
[3] = Treatment B: single 86.7 mg/kg MT1621, fasted, baseline-adjusted plasma, arithmetic mean ± SD
[4] = Treatment C: single 133.3 mg/kg MT1621, fasted, baseline-adjusted plasma, arithmetic mean ± SD
[5] = Treatment D: single 133.3 mg/kg MT1621, fed (high-fat breakfast), baseline-adjusted plasma, arithmetic mean ± SD
[6] = across the 3 fasted dose levels (Treatments A, B, C), plasma

## Cc1cn([C@H]2C[C@H](O)[C@@H](CO)O2)c(=O)[nH]c1=O [dT, β-D-2′-deoxythymidine]
133.3 mg/kg MT1621, plasma
  increase in baseline adjusted AUC, fed compared to fasted: 74%
  increase in baseline adjusted Cmax, fed compared to fasted: 27%
[1]
  AUC0-t GMR (%): 174.38%
  Cmax GMR (%): 127.39%
[2]
  AUC%extrap: 46.24 NC %
  Kel: 0.1569 NC 1/hr
[3]
  AUC%extrap: 6.481 ± 5.9830%
  Kel: 0.0932 ± 0.07205 h⁻¹
[4]
  AUC%extrap: 1.954 ± 1.6169%
  Kel: 0.09785 ± 0.06094 h⁻¹
[5]
  AUC%extrap: 1.244 ± 1.1349%
  Kel: 0.2445 ± 0.2863 h⁻¹
[6]
  dose proportionality of AUC (total extent of exposure, AUC0-t and AUC0-inf): neither AUC nor Cmax was dose proportional
  dose proportionality of Cmax: neither AUC nor Cmax was dose proportional
Both sexes, human, oral, Treatment D: single 133.3 mg/kg MT1621, fed (high-fat breakfast), baseline-adjusted plasma, arithmetic mean ± SD, read-out: Vz/F
  Vd/F: 6220 ± 2880 L/kg
Both sexes, human, plasma, oral, 43.3 mg/kg, Treatment A: single 43.3 mg/kg MT1621, fasted, baseline-adjusted plasma, arithmetic mean ± SD
  half-life: 4.42 h
Both sexes, human, plasma, oral, 43.3 mg/kg, Treatment A: single 43.3 mg/kg MT1621, fasted, baseline-adjusted plasma, geometric mean (geometric CV %)
  AUC(0-inf): 3.56 ng·h/mL
Both sexes, human, plasma, oral, 43.3 mg/kg, Treatment A: single 43.3 mg/kg MT1621, fasted, baseline-adjusted plasma, geometric mean (geometric CV %), read-out: AUC0-4
  AUC(0-t): 8.78 ng·h/mL
Both sexes, human, plasma, oral, 43.3 mg/kg, Treatment A: single 43.3 mg/kg MT1621, fasted, baseline-adjusted plasma, geometric mean (geometric CV %), read-out: AUC0-6
  AUC(0-t): 11.1 ng·h/mL
Both sexes, human, plasma, oral, 43.3 mg/kg, Treatment A: single 43.3 mg/kg MT1621, fasted, baseline-adjusted plasma, geometric mean (geometric CV %), read-out: AUC0-48
  AUC(0-t): 18.2 ng·h/mL
Both sexes, human, plasma, oral, 43.3 mg/kg, Treatment A: single 43.3 mg/kg MT1621, fasted, baseline-adjusted plasma, geometric mean (geometric CV %), read-out: AUC0-t
  AUC(0-t): 12.6 ng·h/mL
Both sexes, human, plasma, oral, 43.3 mg/kg, Treatment A: single 43.3 mg/kg MT1621, fasted, baseline-adjusted plasma, geometric mean (geometric CV %), read-out: Cmax
  Cmax: 6.19 ng/mL
Both sexes, human, plasma, oral, 43.3 mg/kg, Treatment A: single 43.3 mg/kg MT1621, fasted, baseline-adjusted plasma, median (minimum, maximum), read-out: Tmax
  Tmax: 0.516 h
Both sexes, human, plasma, oral, 86.7 mg/kg, Treatment B: single 86.7 mg/kg MT1621, fasted, baseline-adjusted plasma, arithmetic mean ± SD
  half-life: 10.4 ± 5.95 h
Both sexes, human, plasma, oral, 86.7 mg/kg, Treatment B: single 86.7 mg/kg MT1621, fasted, baseline-adjusted plasma, geometric mean (geometric CV %)
  AUC(0-inf): 67.2 ng·h/mL
Both sexes, human, plasma, oral, 86.7 mg/kg, Treatment B: single 86.7 mg/kg MT1621, fasted, baseline-adjusted plasma, geometric mean (geometric CV %), read-out: AUC0-4
  AUC(0-t): 21 ng·h/mL
Both sexes, human, plasma, oral, 86.7 mg/kg, Treatment B: single 86.7 mg/kg MT1621, fasted, baseline-adjusted plasma, geometric mean (geometric CV %), read-out: AUC0-6
  AUC(0-t): 23.1 ng·h/mL
Both sexes, human, plasma, oral, 86.7 mg/kg, Treatment B: single 86.7 mg/kg MT1621, fasted, baseline-adjusted plasma, geometric mean (geometric CV %), read-out: AUC0-48
  AUC(0-t): 82.1 ng·h/mL
Both sexes, human, plasma, oral, 86.7 mg/kg, Treatment B: single 86.7 mg/kg MT1621, fasted, baseline-adjusted plasma, geometric mean (geometric CV %), read-out: AUC0-t
  AUC(0-t): 31.7 ng·h/mL
Both sexes, human, plasma, oral, 86.7 mg/kg, Treatment B: single 86.7 mg/kg MT1621, fasted, baseline-adjusted plasma, geometric mean (geometric CV %), read-out: Cmax
  Cmax: 14.2 ng/mL
Both sexes, human, plasma, oral, 86.7 mg/kg, Treatment B: single 86.7 mg/kg MT1621, fasted, baseline-adjusted plasma, median (minimum, maximum), read-out: Tmax
  Tmax: 1.06 h
Both sexes, human, plasma, oral, 133.3 mg/kg, Treatment C, fasted, baseline-adjusted plasma, ANOVA on ln-transformed data, read-out: AUC0-t Geometric LSM, 133.3 mg/kg MT1621, Fasted (Reference)
  AUC(0-t): 91.2 ng·h/mL
Both sexes, human, plasma, oral, 133.3 mg/kg, Treatment C, fasted, baseline-adjusted plasma, ANOVA on ln-transformed data, read-out: Cmax Geometric LSM, 133.3 mg/kg MT1621, Fasted (Reference)
  Cmax: 31.5 ng/mL
Both sexes, human, plasma, oral, 133.3 mg/kg, Treatment C: single 133.3 mg/kg MT1621, fasted, baseline-adjusted plasma, arithmetic mean ± SD
  half-life: 8.76 ± 4.04 h
Both sexes, human, plasma, oral, 133.3 mg/kg, Treatment C: single 133.3 mg/kg MT1621, fasted, baseline-adjusted plasma, geometric mean (geometric CV %)
  AUC(0-inf): 144 ng·h/mL
Both sexes, human, plasma, oral, 133.3 mg/kg, Treatment C: single 133.3 mg/kg MT1621, fasted, baseline-adjusted plasma, geometric mean (geometric CV %), read-out: AUC0-4
  AUC(0-t): 53.1 ng·h/mL
Both sexes, human, plasma, oral, 133.3 mg/kg, Treatment C: single 133.3 mg/kg MT1621, fasted, baseline-adjusted plasma, geometric mean (geometric CV %), read-out: AUC0-6
  AUC(0-t): 60.6 ng·h/mL
Both sexes, human, plasma, oral, 133.3 mg/kg, Treatment C: single 133.3 mg/kg MT1621, fasted, baseline-adjusted plasma, geometric mean (geometric CV %), read-out: AUC0-48
  AUC(0-t): 114 ng·h/mL
Both sexes, human, plasma, oral, 133.3 mg/kg, Treatment C: single 133.3 mg/kg MT1621, fasted, baseline-adjusted plasma, geometric mean (geometric CV %), read-out: AUC0-t
  AUC(0-t): 91.2 ng·h/mL
Both sexes, human, plasma, oral, 133.3 mg/kg, Treatment C: single 133.3 mg/kg MT1621, fasted, baseline-adjusted plasma, geometric mean (geometric CV %), read-out: Cmax
  Cmax: 31.5 ng/mL
Both sexes, human, plasma, oral, 133.3 mg/kg, Treatment C: single 133.3 mg/kg MT1621, fasted, baseline-adjusted plasma, median (minimum, maximum), read-out: Tmax
  Tmax: 1.25 h
Both sexes, human, plasma, oral, 133.3 mg/kg, Treatment D, fed, baseline-adjusted plasma, ANOVA on ln-transformed data, read-out: AUC0-t Geometric LSM, 133.3 mg/kg MT1621, Fed (Test)
  AUC(0-t): 159 ng·h/mL
Both sexes, human, plasma, oral, 133.3 mg/kg, Treatment D, fed, baseline-adjusted plasma, ANOVA on ln-transformed data, read-out: Cmax Geometric LSM, 133.3 mg/kg MT1621, Fed (Test)
  Cmax: 40.1 ng/mL
Both sexes, human, plasma, oral, 133.3 mg/kg, Treatment D: single 133.3 mg/kg MT1621, fed (high-fat breakfast), baseline-adjusted plasma, arithmetic mean ± SD
  half-life: 5.35 ± 3.11 h
Both sexes, human, plasma, oral, 133.3 mg/kg, Treatment D: single 133.3 mg/kg MT1621, fed (high-fat breakfast), baseline-adjusted plasma, geometric mean (geometric CV %)
  AUC(0-inf): 149 ng·h/mL
Both sexes, human, plasma, oral, 133.3 mg/kg, Treatment D: single 133.3 mg/kg MT1621, fed (high-fat breakfast), baseline-adjusted plasma, geometric mean (geometric CV %), read-out: AUC0-4
  AUC(0-t): 74.4 ng·h/mL
Both sexes, human, plasma, oral, 133.3 mg/kg, Treatment D: single 133.3 mg/kg MT1621, fed (high-fat breakfast), baseline-adjusted plasma, geometric mean (geometric CV %), read-out: AUC0-6
  AUC(0-t): 119 ng·h/mL
Both sexes, human, plasma, oral, 133.3 mg/kg, Treatment D: single 133.3 mg/kg MT1621, fed (high-fat breakfast), baseline-adjusted plasma, geometric mean (geometric CV %), read-out: AUC0-48
  AUC(0-t): 141 ng·h/mL
Both sexes, human, plasma, oral, 133.3 mg/kg, Treatment D: single 133.3 mg/kg MT1621, fed (high-fat breakfast), baseline-adjusted plasma, geometric mean (geometric CV %), read-out: AUC0-t
  AUC(0-t): 159 ng·h/mL
Both sexes, human, plasma, oral, 133.3 mg/kg, Treatment D: single 133.3 mg/kg MT1621, fed (high-fat breakfast), baseline-adjusted plasma, geometric mean (geometric CV %), read-out: Cmax
  Cmax: 40.1 ng/mL
Both sexes, human, plasma, oral, 133.3 mg/kg, Treatment D: single 133.3 mg/kg MT1621, fed (high-fat breakfast), baseline-adjusted plasma, median (minimum, maximum), read-out: Tmax
  Tmax: 4 h
Both sexes, human, plasma, oral, under fasted conditions, read-out: median Tmax
  Tmax: 1 h
Both sexes, human, plasma, oral, under fed conditions, read-out: median Tmax
  Tmax: 3 h
Following MT1621, all 3 dose levels
  plasma exposure compared to endogenous (baseline) concentrations: consistently higher
